The values below are quoted from earlier work in patent publication US20040235935A1, “Oral pharmaceutical composition containing a statin derivative” (priority 2001, published 2004).

For data set [1] the following is noted: for Vsol = volume of water required to completely dissolve a 20 mg dose: solubility at pH 5.
Assay in data set [2]: not given
The source holds these as a separate data set.

Assay in data set [3]: not given
This is another data set of the same source.

[4] abbreviates: healthy humans, oral dose 20 mg.
Setting [5] is: healthy humans, oral dose 40 mg.

In brackets after ≈: the same amount, converted by molar mass. Where two headings read alike, the source gives them in different places.

Consider `CC[C@H](C)C(=O)O[C@H]1C[C@@H](C)C=C2C=C[C@H](C)[C@H](CC[C@@H]3C[C@@H](O)CC(=O)O3)[C@H]21` [Lovastatin Lactone, lovastatin], for which the “D = partition coefficient (logarithm of partition ratio between octanol and water at pH 7)” value (pH 7) was 4.3. In data set [1], the “Vsol = volume of water required to completely dissolve a 20 mg dose” value is 15 385 ml. Also, in data set [1] (at pH 5), the Solubility in water was 1.3 µg/mL (≈ 3.21 µM).
What is called pKa is the negative logarithm of the acid dissociation constant. On to `CCC(C)C(=O)OC1CC(C)C=C2C=CC(C)C(CCC(O)CC(O)CC(=O)[O-])C21.[Na+]` (stereo not drawn) [Lovastatin Hydroxy acid], for which, in data set [2] (human, in vivo, po, 20 mg), the “tmax = time to Cmax” value is reported as 2.8 h. Moreover, the “fa = fraction of the administered dose absorbed” value in data set [2] (in vivo) is listed as “˜31%”. In addition, the pKa in data set [3] is 5.5.
In the case of `CC(C)n1c(/C=C/C(O)CC(O)CC(=O)O)c(-c2ccc(F)cc2)c2ccccc21` (stereo not drawn) [Fluvastatin, fluvastatin], the “Peff = effective membrane permeability” value in data set [2] (healthy humans) was 240 ×10⁻⁶ cm/s. For the same compound, the “F = bioavailability” value in data set [2] (healthy humans, oral) is reported as 10-35%. In addition, in data set [2] (setting [4]), the “AUC = area under plasma concentration-time curve” value (shortened to “AUC = area”) is 167 ng·h/mL and the “Cmax = maximum plasma drug concentration” value is 181 ng/mL. Moreover, in data set [1] (at pH 6), the Solubility in water is 2000 µg/mL (≈ 4860 µM). Further, the pKa in data set [3] was 5.5.
In the case of `CC[C@H](C)C(=O)O[C@H]1C[C@H](O)C=C2C=C[C@H](C)[C@H](CC[C@@H](O)C[C@@H](O)CC(=O)O)[C@H]21` [Pravastatin Hydroxy acid, pravastatin], in data set [2] (healthy humans), the “EH = liver extraction ratio” value is recorded as 45% and the “fa = fraction of the administered dose absorbed” value is on record as “˜34%”. Besides, in data set [2] (setting [4]), the “AUC = area” value was 90.2 ng·h/mL and the “Cmax = maximum plasma drug concentration” value is 38.4 ng/mL. The Solubility in water in data set [1] (at pH 5) was 300000 µg/mL (≈ 707000 µM). Also, the pKa in data set [3] is on record as 5.5.
Consider `CCC(C)(C)C(=O)O[C@H]1C[C@@H](C)C=C2C=C[C@H](C)[C@H](CC[C@@H](O)C[C@@H](O)CC(=O)O)[C@H]21` [Simvastatin Hydroxy acid], for which, in data set [2] (setting [5]), the “AUC = area” value is 58.1 ng·h/mL and the “Cmax = maximum plasma drug concentration” value was 58.1 ng/mL. Also, the “times more readily dissolved in octanol than in water” value (from the partition coefficients at pH 7) is recorded as 126 times. Moreover, in data set [3], the pKa is 5.5.
Consider `CC[C@H](C)C(=O)O[C@H]1C[C@H](O)C=C2C=C[C@H](C)[C@H](CC[C@@H]3C[C@@H](O)CC(=O)O3)[C@H]21` [Pravastatin Lactone], for which, in data set [1], the “Vsol = volume of water required to completely dissolve a 20 mg dose” value was 111 mL. In data set [1] (at pH 5), the Solubility in water is 180 µg/mL (≈ 443 µM).
